From US20260374739A1, “SMALL MOLECULAR WEIGHT CHEMICAL COMPOUND TO ANTAGONIZE EPH-EPHRIN TETRAMERIZATION AND INHIBIT BIDIRECTIONAL SIGNALING” (THE BOARD OF REGENTS OF THE UNIVERSITY OF TEXAS SYSTEM, priority 2022, published 2026)
pIC50: −log10 of the molar value. “And” between values parts separate entries of the source, which are not always exact repeats. Equal entries are not always repeated. “Also recorded” adds a separate entry of the source. Where two headings read alike, the source gives them in different places.

Target: T1, EphB1-EphrinB2 (Rattus norvegicus, UniProt P09759)
T1 construct: rat EphB1-Fc residues 18-538; mouse EB2-His residues 18-232; purchased R&D Systems (EphB1-Fc); Sino Biologicals (EB2-His)
T1 sequence (P09759 18-538): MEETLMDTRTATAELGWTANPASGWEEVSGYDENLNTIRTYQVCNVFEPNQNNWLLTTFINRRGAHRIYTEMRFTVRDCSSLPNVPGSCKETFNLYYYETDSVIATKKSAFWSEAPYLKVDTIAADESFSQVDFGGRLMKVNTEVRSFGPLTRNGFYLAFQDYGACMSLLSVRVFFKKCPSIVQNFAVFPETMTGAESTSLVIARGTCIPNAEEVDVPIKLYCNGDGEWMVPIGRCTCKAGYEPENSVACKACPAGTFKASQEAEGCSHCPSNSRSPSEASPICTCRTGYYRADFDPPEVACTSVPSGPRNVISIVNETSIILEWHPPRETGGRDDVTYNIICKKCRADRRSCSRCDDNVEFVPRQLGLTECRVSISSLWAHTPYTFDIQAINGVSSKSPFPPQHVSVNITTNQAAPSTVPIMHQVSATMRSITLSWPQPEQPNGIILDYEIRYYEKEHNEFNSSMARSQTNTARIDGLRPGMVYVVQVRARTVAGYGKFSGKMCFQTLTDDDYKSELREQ
Experiment: Octet RED384, immobilized rat EphB1-Fc binding to 30 nM mouse EB2-His (400 sec / 500 sec)
Set-up: species or system mouse EphrinB2
Protocol: FIGS. 9A-9B depict Octet RED384 kinetic analysis sensorgram data of 30 nM soluble mouse EphrinB2 (mEB2-His) protein binding to sensorchip immobilized rat EphB1-Fc (FIG. 9A) or mouse EphB4-Fc (FIG. 9B) protein and effect of increased concentration of A20. Association time was for 400 sec and dissociation time was for 500 sec. Binding assays were conducted in PBS containing 0.05% Tween-20 and 1% DMSO.
The experiments described above involve measurements following long-term incubation of proteins with compound and thus represent information after interaction homeostasis has been achieved (FIG. 5A, FIG. 5B, FIG. 5C, and FIG. 5D) or after complexes are extensively washed (ELISAs and pulldowns, FIG. 8). To further analyze biophysical activity of A20 in real-time, kinetic studies were performed using an Octet® RED384 system to visualize the effect of compound on EphB1-EB2 protein-protein binding dynamics. In these experiments, EphB1-Fc ectodomain protein was first sparsely immobilized onto a set of Octet biosensors, […], 1, 10, or 100 μM A20 for a 400 sec association step followed by exposure to buffer only for a 500 sec dissociation step. […] The sensorgram provides various data of the binding kinetics, such as on rates (kon), off rates (koff), and equilibrium dissociation constant (KD). […] Specifically, EphB2 forms a dimer with EphrinB2, and that two dimers then assemble together into a circular tetramer structure (see FIG. 10 and Himanen J P, Rajashankar K R, Lackmann M, Cowan C A, Henkemeyer M, and Nikolov DB. (2001). Crystal structure of an Eph receptor-ephrin complex. Nature 414:933-8, which is incorporated herein by reference in its entirety).
The distinct dimerization and tetramerization interfaces are indicated. Circular tetramers further cluster together to pack in the crystal via additional ligand-ligand (red arrow) and receptor-receptor (blue arrow) interfaces. Many studies by multiple groups show the circular tetramer and tetramer clusters are observed in vivo and that they are needed in order to form the active complex necessary for the transduction of Eph-Ephrin bidirectional signals. […] A variety of methods can be used to compare the different sensorgrams obtained from a dose-dependent run of a drug compound to quantify its LA activity and obtain IC50 information. Single time points in the assay can be picked and response signals obtained at the different compound doses can be compared, such as at 380 sec near the end of the association step or at 100 sec after start of the dissociation step.
Antagonists are classified as either competitive/reversible or irreversible, depending on how the particular inhibitor interacts with its protein targets. A reversible antagonist will bind receptor protein via non-covalent intermolecular forces, and it will eventually dissociate from the receptor, freeing the protein to bind either another antagonist chemical in the solution or its bona-fide ligand protein. […] A competitive antagonist is thought to bind to receptor protein at the same binding site/interface as the endogenous ligand (aka Ephrin), but without activating the receptor. Ligand and antagonist will thus compete for the same binding site on the receptor; when antagonist is bound to receptor it will prevent ligand binding and increasing concentrations of an antagonist will displace in a dose-dependent fashion the ability of ligand from binding the receptor. Since, most receptor antagonists participate in a reversible, non-covalent, competitive type of interaction, two Octet experiments were conducted to determine if this was indeed the mode of action of A20. To determine if A20 is a reversible inhibitor/antagonist, rEphB1-Fc was first immobilized onto sensor chips, then pre-exposed to 100 μM A20, then washed to remove A20, and after baseline measurements then tested for binding to 30 nM soluble mEB2-His protein. […]

[1] = rEphB1-mEphrinB2, immobilized rat EphB1, 50 nM soluble mouse EphrinB2, association, absolute, read-out: Absolute Association IC50
[2] = rEphB1-mEphrinB2, immobilized rat EphB1, 50 nM soluble mouse EphrinB2, association, relative, read-out: Relative Association IC50
[3] = rEphB1-mEphrinB2, immobilized rat EphB1, 50 nM soluble mouse EphrinB2, dissociation, absolute, read-out: Absolute Dissociation IC50
[4] = Absolute Dissociation IC50, rEphB1-mEphrinB2, immobilized rat EphB1, 50 nM soluble mouse EphrinB2, dissociation, absolute
[5] = Relative Dissociation IC50, rEphB1-mEphrinB2, immobilized rat EphB1, 50 nM soluble mouse EphrinB2, dissociation, relative
[6] = EphB1-EB2, AUC, read-out: IC50 (area under the curve)

SMILES | pIC50 [1] | pIC50 [2] | pIC50 [3] | pIC50 (rEphB1-mEphrinB2, immobilized rat EphB1, 50 nM soluble mouse EphrinB2, dissociation, relative, read-out: Relative Dissociation IC50) | pIC50 [4] | pIC50 [5] | pIC50 (100 sec dissociation, read-out: IC50 (response at 100 sec after dissociation step)) | pIC50 (380 sec association, read-out: IC50 (response at 380 sec after association)) | pIC50 [6] | antagonist activity of salt vs free-base (fold better than free-base) | mode of antagonism (reversibility 100 μM pre-exposure, competition 0.1-1000 nM EB2, listed as A20)
Oc1c(I)cc(CN2CCOCC2)c2cccnc12 [Compound 8, 4-((8-hydroxy-7-iodoquinolin-1-ium-5-yl)methyl)morpholin-4-ium chloride] | < 5.80 and 4.00 | 6.55 and 6.28 | 6.15 and 6.29 | 6.29 and 6.35 |  |  |  |  |  |  | 
O=[N+]([O-])c1cc(CN2CCOCC2)c2cccnc2c1O [Compound 10, 4-((8-hydroxy-7-nitroquinolin-1-ium-5-yl)methyl)morpholin-4-ium chloride] | 4.00 | 5.27 |  |  | 5.61 | 5.70 |  |  |  |  | 
Oc1ccc(CN2CCOCC2)c2cccnc12 [Compound 1, 5-(morpholinomethyl)quinolin-8-ol] | 4.00 | 4.00 | 4.00 |  |  | 5.48 |  |  |  |  | 
Oc1c(Br)cc(CN2CCOCC2)c2cccnc12 [Compound 6, 4-((7-bromo-8-hydroxyquinolin-1-ium-5-yl)methyl)morpholin-4-ium chloride] | 4.55 | 6.13 |  |  |  |  | 5.62 | 5.51 | 5.44 | 2-3 fold | 
Oc1ccc(CN2CCN(Cc3ccc(C(F)(F)F)cc3)CC2)c2cccnc12 [Compound 48, 5-((4-(4-(trifluoromethyl)benzyl)piperazin-1-yl)methyl)quinolin-8-ol] | 4.00 | < 5.00 |  |  | 4.82 | 5.63 |  |  |  |  | 
Oc1c(Cl)cc(CN2CCOCC2)c2cccnc12 [Compound 4, 4-((7-chloro-8-hydroxyquinolin-1-ium-5-yl)methyl)morpholin-4-ium chloride] | 4.85 | 6.03 |  |  | 6.08 | 6.19 |  |  |  |  | 
O=S1(=O)CCN(Cc2ccc(O)c3ncccc23)CC1 [Compound 15, 4-((8-hydroxyquinolin-1-ium-5-yl)methyl)thiomorpholin-4-ium 1,1-dioxide chloride] | 4.00 | 4.00 |  |  |  | 6.05 |  |  |  |  | 
Oc1c(Br)cc(CN2CCOCC2)c2cccnc12 [Compound 5, 7-bromo-5-(morpholinomethyl)quinolin-8-ol] |  |  |  |  |  |  |  |  | 5.03 |  | compound acts as a reversible inhibitor; also recorded: compound is a competitive inhibitor of EphB1-EB2 binding
